2 molecules from ChEMBL document CHEMBL4373692, “Structure-Based Development of (1-(3'-Mercaptopropanamido)methyl)boronic Acid Derived Broad-Spectrum, Dual-Action Inhibitors of Metallo- and Serine-β-lactamases” (J Med Chem, 2019) can be followed below.

In series [1] the target is T1, Angiotensin-converting enzyme 2 (ACE-2) (Homo sapiens, UniProt Q9BYF1). In words: Inhibition of human C-terminal His/FLAG-tagged ACE-2 expressed in HEK293 cells at 50 uM preincubated for 10 mins followed by Mca-Ala-Pro-Lys(Dnp)-OH substrate addition by fluorescence assay relative to control. To be noted: probe Mca-Ala-Pro-Lys(Dnp)-OH. It counts as cell-based.
T1 sequence (Q9BYF1 whole entry, the tested form may be a part): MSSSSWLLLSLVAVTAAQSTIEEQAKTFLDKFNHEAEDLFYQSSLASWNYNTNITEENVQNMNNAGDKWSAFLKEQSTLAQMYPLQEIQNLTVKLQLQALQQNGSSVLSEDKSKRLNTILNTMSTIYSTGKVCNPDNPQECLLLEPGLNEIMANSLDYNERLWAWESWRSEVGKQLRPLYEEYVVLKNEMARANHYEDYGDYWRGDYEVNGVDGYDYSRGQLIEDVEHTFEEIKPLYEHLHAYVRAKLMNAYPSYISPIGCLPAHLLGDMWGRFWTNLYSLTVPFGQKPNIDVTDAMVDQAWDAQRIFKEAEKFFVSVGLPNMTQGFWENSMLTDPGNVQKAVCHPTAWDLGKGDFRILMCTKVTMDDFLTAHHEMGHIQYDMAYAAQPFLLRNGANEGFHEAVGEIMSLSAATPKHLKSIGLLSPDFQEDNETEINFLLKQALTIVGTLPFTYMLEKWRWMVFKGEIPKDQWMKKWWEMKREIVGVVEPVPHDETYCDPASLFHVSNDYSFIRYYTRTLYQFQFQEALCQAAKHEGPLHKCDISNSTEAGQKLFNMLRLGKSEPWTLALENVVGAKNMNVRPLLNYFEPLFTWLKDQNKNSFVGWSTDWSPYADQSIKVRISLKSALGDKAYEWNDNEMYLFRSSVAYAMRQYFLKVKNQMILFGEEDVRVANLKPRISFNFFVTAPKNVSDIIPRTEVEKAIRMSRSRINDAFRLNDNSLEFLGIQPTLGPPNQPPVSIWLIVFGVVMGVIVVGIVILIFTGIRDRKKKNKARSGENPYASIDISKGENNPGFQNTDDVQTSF
Series [2] in a line: Inhibition of bacterial N-terminal His-tagged TEV protease site linked VIM-2 (27 to 266 amino acids) expressed in Escherichia coli Transetta (DE3) preincubated for 10 mins followed by FC5 fluorescent substrate addition by fluorescence assay. Also on record: species or system Bacteria.
Series [3] in a line: Inhibition of bacterial N-terminal His-tagged TEV protease site linked NDM-1 (1 to 270 amino acids) expressed in Escherichia coli Transetta (DE3) preincubated for 10 mins followed by FC5 fluorescent substrate addition by fluorescence assay. Details: species or system Bacteria; call rule not given here.
A short description of series [4]: Inhibition of bacterial N-terminal His-tagged TEV protease site linked SFH1 (3 to 234 amino acids) expressed in Escherichia coli Transetta (DE3) preincubated for 10 mins followed by FC5 fluorescent substrate addition by fluorescence assay. Details: species or system Bacteria.
The nature of series [5]: Inhibition of bacterial N-terminal His-tagged TEV protease site linked GOB-18 (1 to 290 amino acids) expressed in Escherichia coli Transetta (DE3) preincubated for 10 mins followed by FC5 fluorescent substrate addition by fluorescence assay. Also on record: species or system Bacteria.
A short description of series [6]: Inhibition of bacterial N-terminal His-tagged TEV protease site linked KPC-2 (29 to 289 amino acids) expressed in Escherichia coli Transetta (DE3) preincubated for 10 mins followed by FC5 fluorescent substrate addition by fluorescence assay. Also on record: species or system Bacteria.
For another series, the target named is Beta-lactamase TEM (Bacteria, UniProt P62593). In words: Inhibition of bacterial N-terminal His-tagged TEV protease site linked TEM-1 (24 to 286 amino acids) expressed in Escherichia coli Transetta (DE3) preincubated for 10 mins followed by FC5 fluorescent substrate addition by fluorescence assay.
The nature of series [7]: Inhibition of bacterial N-terminal His-tagged TEV protease site linked AmpC (20 to 377 amino acids) expressed in Escherichia coli Transetta (DE3) preincubated for 10 mins followed by FC5 fluorescent substrate addition by fluorescence assay. Also on record: species or system Bacteria.
Series [8] is described as follows: Inhibition of bacterial N-terminal His-tagged TEV protease site linked OXA-48 (1 to 265 amino acids) expressed in Escherichia coli Transetta (DE3) preincubated for 10 mins followed by FC5 fluorescent substrate addition by fluorescence assay. Also on record: species or system Bacteria.
Series [9] in a line: (§1) Inhibition of serine hydrolase in Escherichia coli Transetta (DE3) cell lysates at 50 uM preincubated for 30 mins followed by TAMRA-FP probe labeling for 20 mins by SDS-PAGE based ABPP analysis. The settings on record: 20 min, 50 µM. In kind it is subcellular, Lysate.
A short description of series [10]: (§2) Inhibition of serine hydrolase in HEK293T cell lysates at 50 uM preincubated for 30 mins followed by TAMRA-FP probe labeling for 20 mins by SDS-PAGE based ABPP analysis. It counts as subcellular, Lysate. To be noted: human, 20 min, 50 µM.
For series [11], the target named is T1, Angiotensin-converting enzyme 2 (ACE-2). In words: (§3) Inhibition of human C-terminal His/FLAG-tagged ACE-2 expressed in HEK293 cells at 100 uM preincubated for 10 mins followed by Mca-Ala-Pro-Lys(Dnp)-OH substrate addition by fluorescence assay relative to control. It counts as cell-based. The settings on record: probe Mca-Ala-Pro-Lys(Dnp)-OH.
Series [12] deals with serine hydrolase. The description is as §1. In kind it is subcellular, Lysate. To be noted: Escherichia coli Transetta (DE3) cell lysates, probe TAMRA-FP.
The test system of series [13] is serine hydrolase. The series is described as §2. The settings on record: human, HEK293T cell lysates, probe TAMRA-FP. In kind it is subcellular, Lysate.
The target of series [14] is Angiotensin-converting enzyme 2 (Homo sapiens, UniProt Q9BYF1). The description is as §3. In kind it is cell-based. To be noted: hek293, 100 µM.
Angiotensin-converting enzyme 2, sequence (Q9BYF1 whole entry): as the sequence (Q9BYF1 whole entry, the tested form may be a part) above
The test system of a further series is Escherichia coli. Nature of the series: Inhibition of beta lactamase NDM1 in Escherichia coli BAA-2452 assessed as potentiation of meropenem-induced antibacterial activity by measuring meropenem MIC at 50 uM after 16 to 20 hrs by broth microdilution assay (reference value: 32 ug/ml).
The target of series [15] is Metallo-beta-lactamase type 2 (Klebsiella pneumoniae) (UniProt C7C422). In words: Inhibition of beta lactamase NDM1 in Klebsiella pneumoniae 13249 assessed as potentiation of meropenem-induced antibacterial activity by measuring meropenem MIC at 50 uM after 16 to 20 hrs by broth microdilution assay (reference value: 64 ug/ml).
The subject of series [16] is Klebsiella pneumoniae. In words: Inhibition of beta lactamase KPC-2 in Klebsiella pneumoniae BAA-1705 assessed as potentiation of meropenem-induced antibacterial activity by measuring meropenem MIC at 50 uM after 16 to 20 hrs by broth microdilution assay.
The subject of series [17] is Klebsiella pneumoniae. Nature of the series: Inhibition of beta lactamase KPC-2 in Klebsiella pneumoniae 5846 assessed as potentiation of meropenem-induced antibacterial activity by measuring meropenem MIC at 50 uM after 16 to 20 hrs by broth microdilution assay (reference value: […] ug/ml).
In series [18] the test system is Klebsiella pneumoniae. Nature of the series: Inhibition of beta lactamase AmpC in Klebsiella pneumoniae C660 assessed as potentiation of meropenem-induced antibacterial activity by measuring meropenem MIC at 50 uM after 16 to 20 hrs by broth microdilution assay (reference value: 32 ug/ml).
A further series has as its system HEK-293T. In words: Cytotoxicity against HEK293T cells up to 100 uM after 72 hrs by MTT assay. It counts as cell-based. To be noted: human.
A further series has as its system MCF7. In words: Cytotoxicity against human MCF7 cells up to 100 uM after 72 hrs by MTT assay. In kind it is cell-based. The settings on record: mcf7, 72 h.
The target in series [19] is Class A carbapenemase KPC-2 (Escherichia coli) (UniProt A8DS27). To be noted: BAA-2340.
The target is the same in series [20]. To be noted: 11119.

Converted amounts (≈) assume the structure as drawn. Bounds are passed on as bounds.

`O=C(N[C@@H](Cc1ccccc1)B(O)O)C(CS)Cc1ccccc1` (some centres not stated) had an inhibition at 10 min, 50 µM in [1] of 44.6%. Further, the Ki in series [2] came out at 3 µM; in series [3] it was 6.87 µM; in [4] it was 5.79 µM; in [5], 14.3 µM; in series [6], 13.7 µM; on Beta-lactamase TEM, 114 µM. Moreover, the Ki in series [7] was 11.6 µM; in [8], greater than 300 µM. The “inhibition (INH)” value in [9] and in [10] was “Not Active” each time. Also, the inhibition at 10 min, 100 µM in series [11] was 63.2%.

Take `C[C@H](CS)C(=O)NCB(O)O`: the Ki was 0.76 µM in series [2]; 67.1 µM in series [3]; 7.34 µM in series [4]; 2.23 µM in series [5]; 2.7 µM in [6]; 41 µM at Beta-lactamase TEM. For the same molecule, the figures for the Ki in series [7] and in series [8] were 6.46 µM and 70.2 µM, respectively. Also, the inhibition at 20 min, 50 µM in the series on serine hydrolase [12] and with serine hydrolase [13] was less than 50% in each case. Further, in series [14], the “inhibition (INH)” value is “Not Active”. In addition, the MIC in the series on Escherichia coli came out at 16 µg/mL; in [15], 64 µg/mL; in the series on Klebsiella pneumoniae [16] it was 8 µg/mL; with Klebsiella pneumoniae [17] it was 4 µg/mL; in the series with Klebsiella pneumoniae [18], 8 µg/mL; in series [19] it was 0.5 µg/mL (≈ 2.82 µM). In addition, the MIC in series [20] amounted to 4 µg/mL (≈ 22.6 µM). Moreover, the Activity result with HEK-293T and in the series on MCF7 was “Non-Toxic” throughout.
